In publication PMC9897788, “Design, synthesis and cytotoxic evaluation of novel bis-thiazole derivatives as preferential Pim1 kinase inhibitors with in vivo and in silico study” (Journal of Enzyme Inhibition and Medicinal Chemistry, 2023) one finds inhibition data, which are given here for three molecules.

By inhibition is commonly meant the relative decrease from the control value, in per cent.

Holding throughout (test): NCI 60 cell one-dose screening (SRB)
Common to all, as to format: cell-based

Experiment [1] relates to HCC-2998. To be noted: Homo sapiens; HCC-2998, Colon Cancer; single dose 10 µM, 48 h; read-out: Percentage of cellular growth inhibition. On the procedure: (§1) The 60 cancerous cell panel screening was performed following the Developmental Therapeutics Program (DTP) of the National Cancer Institute (NIH-NCI), USA. A single dose of 10 µM was used to perform the screening at 48 h incubation and the results were achieved as cancerous cell growth percentage relative to the no-drug control that was converted to an inhibition percentage by subtracting from 100.The cancerous cell lines were grown in RPMI 1640 medium containing 5% foetal bovine serum and 2 mM L-glutamine at 37 °C, 5% CO2, 95% air and 100% relative humidity for 24 h prior to addition of the tested compounds. After 24 h, two plates of each cell line were fixed in situ with TCA to represent a measurement of the cell population for each cell line at the time of drug addition (Tz). Compounds were dissolved in DMSO at 400-fold the desired final maximum test concentration and stored frozen prior to use. At the time of drug addition, an aliquot of frozen concentrate was thawed and diluted to twice the desired final maximum test concentration with complete medium containing 50 µg/mL gentamicin. Aliquots of 100 µL of the compounds dilution was added to the appropriate micro titre wells already containing 100 µL of medium, resulting in the required final drug concentrations of 10 µM. Following compounds addition, the plates were incubated for an additional 48 h at 37 °C, 5% CO2, 95% air, and 100% relative humidity. For adherent cells, the assay was terminated by the addition of cold TCA. Cells were fixed in situ by the gentle addition of 50 µL of cold 50% (w/v) TCA (final concentration, 10% TCA) and incubated for 60 min at 4 °C. The supernatant was discarded, and the plates were washed five times with tap water and air dried. Sulphorhodamine B (SRB) solution (100 µL) at 0.4% (w/v) in 1% acetic acid is added to each well, and plates are incubated for 10 min at room temperature. After staining, unbound dye was removed by washing five times with 1% acetic acid and the plates were air dried. Bound stain was subsequently solubilised with 10 mM trizma base, and the absorbance was read on an automated plate reader at a wavelength of 515 nm. For suspension cells, the methodology was the same except that the assay was terminated by fixing settled cells at the bottom of the wells by gently adding 50 µL of 80% TCA (final concentration, 16% TCA). Using the seven absorbance measurements [time zero, (Tz), control growth, I, and test growth in the presence of drug at the five concentration levels (Ti)], the percentage growth was calculated as: [(Ti−Tz)/(C−Tz)]×100 for concentrations for which Ti>/=Tz [(Ti−Tz)/Tz]×100 for concentrations for which Ti<Tz.

For experiment [2], the system named is MCF7. To be noted: Homo sapiens; MCF7, Breast Cancer; single dose 10 µM, 48 h; read-out: Percentage of cellular growth inhibition. The protocol: as §1
Experiment [3] has as its system IGROV1. To be noted: Homo sapiens, IGROV-1; IGROV1, Ovarian Cancer; single dose 10 µM, 48 h; read-out: Percentage of cellular growth inhibition. The protocol: as §1
The subject of experiment [4] is HT29. To be noted: Homo sapiens, HT-29; HT29, Colon Cancer; single dose 10 µM, 48 h; read-out: Percentage of cellular growth inhibition. On the procedure: as §1
In experiment [5] the test system is MDA-MB-231/ATCC. To be noted: Homo sapiens, Breast Cancer, single dose 10 µM, 48 h, read-out: Percentage of cellular growth inhibition. On the procedure: as §1
For experiment [6], the system named is SNB-75. To be noted: Homo sapiens; SNB-75, CNS Cancer; single dose 10 µM, 48 h; read-out: Percentage of cellular growth inhibition. The protocol: as §1
Experiment [7] concerns RPMI-8226. To be noted: Homo sapiens; RPMI-8226, Leukemia; single dose 10 µM, 48 h; read-out: Percentage of cellular growth inhibition. The protocol:
as §1

Experiment [8] deals with KM12. To be noted: Homo sapiens; KM12, Colon Cancer; single dose 10 µM, 48 h; read-out: Percentage of cellular growth inhibition. On the procedure: as §1
The test system of experiment [9] is A498. To be noted: Homo sapiens; A498, Renal Cancer; single dose 10 µM, 48 h; read-out: Percentage of cellular growth inhibition. On the procedure: as §1
Experiment [10] relates to DU-145. To be noted: Homo sapiens; DU-145, Prostate Cancer; single dose 10 µM, 48 h; read-out: Percentage of cellular growth inhibition. The protocol: as §1
The subject of experiment [11] is HCT-116. To be noted: Homo sapiens; HCT-116, Colon Cancer; single dose 10 µM, 48 h; read-out: Percentage of cellular growth inhibition. On the procedure: as §1
Experiment [12] deals with UACC-62. To be noted: Homo sapiens; UACC-62, Melanoma; single dose 10 µM, 48 h; read-out: Percentage of cellular growth inhibition. On the procedure: as §1
The test system of experiment [13] is 786-0. To be noted: Homo sapiens; 786-0, Renal Cancer; single dose 10 µM, 48 h; read-out: Percentage of cellular growth inhibition. The protocol:
as §1

The test system of experiment [14] is UO-31. To be noted: Homo sapiens; UO-31, Renal Cancer; single dose 10 µM, 48 h; read-out: Percentage of cellular growth inhibition. The protocol: as §1
For experiment [15], the system named is EKVX. To be noted: Homo sapiens, Non-Small Cell Lung Cancer, single dose 10 µM, 48 h, read-out: Percentage of cellular growth inhibition. On the procedure: as §1
In experiment [16] the test system is MDA-MB-435. To be noted: Homo sapiens; MDA-MB-435, Melanoma; single dose 10 µM, 48 h; read-out: Percentage of cellular growth inhibition. The protocol: as §1
Experiment [17] has as its system UACC-257. To be noted: Homo sapiens; UACC-257, Melanoma; single dose 10 µM, 48 h; read-out: Percentage of cellular growth inhibition. The protocol:
as §1

Experiment [18] deals with NCI-H226. To be noted: Homo sapiens; NCI-H226, Non-Small Cell Lung Cancer; single dose 10 µM, 48 h; read-out: Percentage of cellular growth inhibition. The protocol: as §1
Experiment [19] relates to SW-620. To be noted: Homo sapiens; SW-620, Colon Cancer; single dose 10 µM, 48 h; read-out: Percentage of cellular growth inhibition. On the procedure:
as §1

In experiment [20] the test system is TK-10. To be noted: Homo sapiens; TK-10, Renal Cancer; single dose 10 µM, 48 h; read-out: Percentage of cellular growth inhibition. The protocol: as §1

The structures appear in SMILES notation.

`NC(=S)Nc1cccc(NC(N)=S)c1` [compound 2, 1,1′-(1,3-phenylene)bis(thiourea)]: the inhibition at 10 µM in [1] was -16.9%; in experiment [2], 8.3%; in [3], 2.5%; in experiment [4], -13.3%; in experiment [5] it was 10.3%; in experiment [6], 2.4%. Besides, the inhibition at 10 µM in experiment [7] is -9.5%; in experiment [8] it was 12.4%; in experiment [9] it was -1.2%; in [10], -1.2%; in experiment [11] it was -7%; in experiment [12], 29.5%. Further, the inhibition at 10 µM is -7.8% in experiment [13]; 30% in experiment [14]; -1.3% in experiment [15]; 2.7% in [16]; 1.9% in [17]; 1.9% in experiment [18]. Also, the inhibition at 10 µM in experiment [19] is -6.9%; in [20], -7.3%.

With `Fc1ccc(-c2cs/c(=N\c3ccccc3)n2-c2cccc(-n3c(-c4ccc(F)cc4)cs/c3=N\c3ccccc3)c2)cc1` [8b, N,N’-(3,3’-(1,3-phenylene)bis(4–(4-fluorophenyl)thiazole-3(3H)-yl-2(3H)-ylidene))dianiline], the inhibition at 10 µM in experiment [1] was 12.1%; in experiment [2], 42.9%; in experiment [3] it was 12.9%; in [4] it was 9.9%; in experiment [5], 8.9%; in [6], 15.4%. The inhibition at 10 µM was 24.2% in experiment [7]; 12.8% in experiment [8]; -6.4% in [9]; 17.1% in experiment [10]; 16.7% in experiment [11]; 41% in experiment [12]. Besides, the inhibition at 10 µM in experiment [13] was 4.2%; in experiment [14], 26.3%; in experiment [15] it was 19.5%; in [16] it was 13.1%; in experiment [17], -7%; in experiment [18], 23.5%. Also, the inhibition at 10 µM in [19] was 45.1%; in [20], -16.6%.

`Cc1csc(Nc2cccc(Nc3nc(C)cs3)c2)n1` [3a, N^1,N^3-bis(4-methylthiazol-2-yl)benzene-1,3-diamine]: the inhibition at 10 µM in experiment [1] was -4.2%; in experiment [2] it was 21.9%; in experiment [3], 7.9%; in experiment [4], -6.8%; in experiment [5], 21.2%; in [6], 1.6%. Further, the inhibition at 10 µM came out at 11.8% in experiment [7]; 5.2% in [8]; 51.2% in experiment [9]; 10.2% in [10]; 4.8% in experiment [11]; 22.3% in [12]. In addition, the inhibition at 10 µM is -10.8% in experiment [13]; 15.7% in [14]; 14.7% in experiment [15]; 4% in experiment [16]; -21.6% in [17]; 24.2% in experiment [18]. In addition, the inhibition at 10 µM is -3.6% in experiment [19] and -35% in experiment [20].
